Measurements: patent US20220091128A1, “SYSTEM AND METHOD FOR LIGAND THERMAL ANALYSIS” (Portland State University, priority 2019, published 2022)

Experiments:
Type in all cases: binding
HSA = HSA (Homo sapiens, UniProt P02768); experiment: Capture of DNA from plasma with biotinylated HSA capture reagent, gel electrophoresis; set-up: purchased Sigma Aldrich (HSA); biotinylated in house (Thermo Fisher Scientific 21217); Pierce streptavidin magnetic beads (Thermo Scientific 88816); conditions: salt washes
Protocol: Gel electrophoresis: DNA samples collected at different steps of the capture procedure were analyzed by electrophoresis on polyacrylamide gels. All electrophoresis experiments were performed using Lonza PAGEr™ Gold Precast Gels: Gradient, 10×10 cm, 8-16%, purchased from Thermo-Fisher (BMA59519). Each supernatant fraction collected at different steps of the capture procedure were suspended in TAE running buffer and analyzed. In a typical experiment, 25 μL total volume of solution was loaded per lane (well capacity). Gels were run in TAE buffer (40 mM Tris, 20 mM Acetic Acid, 0.4 mM EDTA) at a constant current of 20 mA for approximately three hours. Gels for analysis of DNA were stained with Stains-all solution, destained in water, removed, visualized and imaged on a flat-bed scanner. Gels for analysis of hot labeled cy5′-25MER DNA were visualized using a Typhoon™ Trio+phosphorimager (GE Healthcare).
Capture strategy: In some examples, biotinylated HSA acts as an affinity reagent for ligands in plasma that bind HSA. In the capture step, streptavidin coated magnetic beads are attached to biotinylated HSA then inserted into plasma. With application of a magnetic field, ligand-bound biotinylated HSA is retrieved. Captured HSA contains bound plasma components (ligands).
Ligand recovery: In the capture process, HSA-bound components are washed off the capture reagent. […]

biotinylated HSA (HSAB) = biotinylated HSA (HSAB) (Homo sapiens, UniProt P02768); experiment: DSC thermograms of biotinylated HSA (HSAB) with ligands; conditions: HSAB, measured versus calculated composite curves (FIG. 23)
human plasma = experiment: DSC thermograms of plasma with ligand; conditions: plasma, measured versus calculated composite curves (FIG. 22)

Chain of biotinylated HSA (HSAB) (P02768 25-609): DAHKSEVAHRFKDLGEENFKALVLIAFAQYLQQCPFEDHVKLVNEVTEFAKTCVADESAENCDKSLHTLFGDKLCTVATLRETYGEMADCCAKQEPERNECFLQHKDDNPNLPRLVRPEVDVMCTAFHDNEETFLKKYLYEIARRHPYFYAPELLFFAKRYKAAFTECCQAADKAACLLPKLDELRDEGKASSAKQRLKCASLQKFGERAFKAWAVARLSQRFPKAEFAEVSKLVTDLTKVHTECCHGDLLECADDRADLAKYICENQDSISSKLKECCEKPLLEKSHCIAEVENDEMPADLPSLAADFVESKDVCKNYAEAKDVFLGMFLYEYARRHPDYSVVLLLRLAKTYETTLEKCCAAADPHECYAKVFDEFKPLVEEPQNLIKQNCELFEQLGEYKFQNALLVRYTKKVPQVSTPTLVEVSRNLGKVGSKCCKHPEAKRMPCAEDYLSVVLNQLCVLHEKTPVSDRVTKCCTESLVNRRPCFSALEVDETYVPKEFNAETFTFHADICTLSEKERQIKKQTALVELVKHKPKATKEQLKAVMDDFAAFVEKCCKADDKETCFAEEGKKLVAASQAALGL
Chain of HSA (P02768 25-609): as above

ssDNA: 25-base single strand DNA 25R, 5′-CGACATGACCTTGTCGCTAACATCC-3′ (DNA CGACATGACCTTGTCGCTAACATCC; DNA, backbone and methylation of C not given here)
binding to HSA by gel analysis (HSA): detectable, but weak
interaction judged by effect on the thermogram (biotinylated HSA (HSAB)): interact very weakly
interaction judged by effect on the thermogram (human plasma): interact very weakly
